Key:
UACC-62 = UACC-62 (Melanoma); 48 h
HCT-116 = experiment: cells; details: Homo sapiens, HCT-116, 48 h
T-47D = T-47D (Breast); 48 h
SK-OV-3 = experiment: cells; details: Homo sapiens, SK-OV-3, 48 h
MCF7 = experiment: cells; details: Homo sapiens, MCF7, 48 h
OVCAR-4 = experiment: cells; details: Homo sapiens, OVCAR-4, 48 h
HCT-15 = experiment: cells; details: Homo sapiens, HCT-15, 48 h
K-562 = K-562 (Leukemia); 48 h
NCI-H322M = NCI-H322M (Non-Small cell lung cancer); 48 h
HOP-92 = experiment: cells; details: Homo sapiens, HOP-92, 48 h
OVCAR-8 = details: 48 h
OVCAR-3 = details: 48 h
RPMI-8226 = experiment: cells; details: Homo sapiens, RPMI-8226, 48 h
HS578T = HS578T (Breast); 48 h
MDA-MB-231/ATCC [1] = details: MDA-MB-231/ATCC (Breast); 48 h
LOX IMVI = LOX IMVI (Melanoma); 48 h
PC-3 = experiment: cells; details: Homo sapiens, PC-3, 48 h
EKVX = EKVX (Non-Small cell lung cancer); 48 h
NCI-H23 = experiment: cells; details: Homo sapiens, NCI-H23, 48 h
SK-MEL-28 = experiment: cells; details: Homo sapiens, SK-MEL-28, 48 h
SK-MEL-5 = experiment: cells; details: Homo sapiens, SK-MEL-5, 48 h
CCRF-CEM [2] = experiment: cells; details: Homo sapiens, 48 h
NCI-H460 = NCI-H460 (Non-Small cell lung cancer); 48 h
purified human HDAC3 = purified human HDAC3 (Homo sapiens, UniProt O15379); experiment: Standard fluorescence HDAC assay; format: biochemical; details: purified human enzyme, read-out: IC50 against HDAC3
Chain of purified human HDAC3 (O15379 whole entry): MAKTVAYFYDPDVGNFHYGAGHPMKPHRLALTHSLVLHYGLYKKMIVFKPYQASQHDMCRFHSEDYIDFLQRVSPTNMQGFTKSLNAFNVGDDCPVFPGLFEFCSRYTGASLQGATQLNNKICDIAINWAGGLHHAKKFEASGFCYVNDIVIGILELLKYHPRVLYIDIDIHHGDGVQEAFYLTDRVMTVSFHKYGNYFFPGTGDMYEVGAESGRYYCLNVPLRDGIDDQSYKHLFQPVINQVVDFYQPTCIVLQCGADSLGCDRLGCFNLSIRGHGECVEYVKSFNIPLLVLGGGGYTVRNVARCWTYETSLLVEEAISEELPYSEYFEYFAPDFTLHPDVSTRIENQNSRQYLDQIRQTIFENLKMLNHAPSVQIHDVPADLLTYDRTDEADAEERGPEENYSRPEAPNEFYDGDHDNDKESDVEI
Chain of purified human HDAC3 (Q9Y618 395-489 partner limits assumed): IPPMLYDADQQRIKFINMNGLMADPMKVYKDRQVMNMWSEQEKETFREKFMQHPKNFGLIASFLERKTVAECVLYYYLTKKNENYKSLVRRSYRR

[3] = test system: RAR target genes in MCF-7 cell line; experiment: RT-qPCR analysis of RAR target genes; format: cell-based
Text: The agonist activity of 3 through its effects on RAR target genes was subsequently analyzed (FIG. 3).

HCC-2998 = experiment: cells; details: Homo sapiens, HCC 2998, 48 h
BT-549 = experiment: cells; details: Homo sapiens, BT-549, 48 h
CAKI-1 [4] = details: CAKI-1 (Renal); 48 h
CCRF-CEM [5] = details: CCRF-CEM (Leukemia); 48 h
DU-145 = experiment: cells; details: Homo sapiens, DU-145, 48 h
BT-20 = experiment: Cell growth measurement; format: cell-based; details: BT-20 (ER-negative, HER2-negative, RA-insensitive)
SW-620 = SW-620 (Colon); 48 h
CAKI-1 [6] = experiment: cells; details: Homo sapiens, CAKI-1, 48 h
ACHN = experiment: cells; details: Homo sapiens, 48 h
MDA-MB-231/ATCC [7] = experiment: cells; details: Homo sapiens, MDA-MB-231, 48 h
UO-31 = experiment: cells; details: Homo sapiens, UO-31, 48 h

Compound: CC1(C)CCC(C)(C)c2cc(-c3ccc4cc(C(=O)NO)ccc4c3)ccc21 [hybrid 3]
- TGI (UACC-62): 1.86 µM
- GI50 (HCT-116): 0.424 µM
- CC50 (HCT-116; read-out: LC50): 4.03 µM
- TGI (T-47D): 4.03 µM
- GI50 (SK-OV-3): 1.54 µM
- CC50 (SK-OV-3; read-out: LC50): 34.8 µM
- GI50 (MCF7): 0.47 µM
- CC50 (MCF7; read-out: LC50): 4.66 µM
- GI50 (OVCAR-4): 0.533 µM
- CC50 (OVCAR-4; read-out: LC50): 29.1 µM
- GI50 (HCT-15): 0.381 µM
- CC50 (HCT-15; read-out: LC50): 9.38 µM
- TGI (K-562): 1.46 µM
- TGI (NCI-H322M): 3.5 µM
- GI50 (HOP-92): 1.93 µM
- CC50 (HOP-92; read-out: LC50): 27.2 µM
- TGI (OVCAR-8): 1.77 µM
- TGI (OVCAR-3): 1.88 µM
- GI50 (RPMI-8226): 0.689 µM
- CC50 (RPMI-8226; read-out: LC50): > 100 µM
- TGI (HS578T): 11.8 µM
- TGI (MDA-MB-231/ATCC [1]): 3.59 µM
- TGI (LOX IMVI): 1.36 µM
- GI50 (PC-3): 1.14 µM
- CC50 (PC-3; read-out: LC50): 21.5 µM
- TGI (EKVX): 3.43 µM
- GI50 (NCI-H23): 0.996 µM
- CC50 (NCI-H23; read-out: LC50): 5.9 µM
- GI50 (SK-MEL-28): 1.81 µM
- CC50 (SK-MEL-28; read-out: LC50): 21.7 µM
- GI50 (SK-MEL-5): 0.977 µM
- CC50 (SK-MEL-5; read-out: LC50): 5.37 µM
- GI50 (CCRF-CEM [2]): 0.306 µM
- CC50 (CCRF-CEM [2]; read-out: LC50): > 100 µM
- TGI (NCI-H460): 1.07 µM
- IC50 (purified human HDAC3): 5 µM
- induction of RAR target genes (RT-qPCR) [3]: clear induction of RARB2 and DHRS3
- GI50 (HCC-2998): 1.09 µM
- CC50 (HCC-2998; read-out: LC50): 5.75 µM
- GI50 (BT-549): 1.42 µM
- CC50 (BT-549; read-out: LC50): 19.7 µM
- TGI (CAKI-1 [4]): 1.03 µM
- TGI (CCRF-CEM [5]): 1.95 µM
- GI50 (DU-145): 0.622 µM
- CC50 (DU-145; read-out: LC50): 4.68 µM
- effect on cell growth (BT-20): active
- TGI (SW-620): 1.94 µM
- GI50 (CAKI-1 [6]): 0.302 µM
- CC50 (CAKI-1 [6]; read-out: LC50): 4.31 µM
- GI50 (ACHN): 0.393 µM
- CC50 (ACHN; read-out: LC50): 5.09 µM
- GI50 (MDA-MB-231/ATCC [7]): 1.2 µM
- CC50 (MDA-MB-231/ATCC [7]; read-out: LC50): 12 µM
- GI50 (UO-31): 0.404 µM
- CC50 (UO-31; read-out: LC50): 4.53 µM

From US20130165520A1, “Hybrid Molecule Having Mixed Retinoic Acid Receptor Agonism and Histone Deacetylase Inhibitory Properties” (priority 2010, published 2013)
